The record followed here is patent US20190117675A1, “Compositions And Methods To Treat And/Or Prevent Vision Disorders Of The Lens Of The Eye” (Helix Holding Company, priority 2014, published 2019).

Data set [1] deals with various cataract-causing crystallin mutants. In words: Aggresome / intracellular aggregate formation of crystallin mutants in transfected cells (confocal microscopy). The data set is classed as cell-based. To be noted: 0-40 μM sterols in 2% DMSO, 2 h treatment then 12 h culture; lanosterol effect dose-dependent. As for the experimental part:
The effect of lanosterol or cholesterol on the aggresome formation of various crystallins was studied by transfecting the cells using plasmids containing various crystallin genes. The cells were cultivated for 24 h to enable efficient protein expression and aggresome formation. Then the cells were treated with 0-40 μM sterols in 2% DMSO. The cells treated with 2% DMSO were used as the control. After treatment for 2 h, the cells were moved to fresh DMEM medium containing 10% fetal bovine serum and further cultivated for 12 h. Then the cells were used for microscopy analysis.
The microscopy samples were prepared by washing the slips by phosphate buffered saline (PBS) three times. The cells were fixed with 4% paraformaldehyde for 40 min followed by three times washing with PBS. The cells were permeabilized with 0.1% Triton X-100 (Sigma) in PBS for 10 min and blocked with 5% normal goat serum in PBS for 1 h at 37° C. Immunostaining was carried out by adding mouse anti-Flag antibody (1:500) or anti-p62 antibody (1:200) in PBS buffer containing 5% normal goat serum and cultivated for 1 h at 37° C. Then the slips were washed three times with PBS, and further incubated with Alexa 649-conjugated goat anti-mouse IgG (1:250) for 1 h at ambient temperature. The nuclei were counterstained with Hoechst 33342. The mounted cells were analyzed using a Carl Zeiss LSM 710 confocal microscope.

In data set [2] the test system is aggregates of various WT and mutated crystallins. In words: In vitro protein assay: dissociation of preformed crystallin aggregates (turbidity, soluble protein, EM). The format is biochemical. To be noted: 37° C.; for dissociation of aggregates of various WT and mutated crystallins: in vitro protein assay, 50 μM sterol in 50 μM DPPS liposome. As for the experimental part:
Evaluation of the effect of lanosterol on the dissolution of crystallin aggregates by turbidity. Crystallin aggregates were formed by incubating 5mgml21 protein solution at 60° C. for 2 h (α-crystallins) or 37° C. for 48 h (β- and γ-crystallins) in the presence of 1M guanidine chloride. The preformed aggregates were re-suspended in PBS at a final protein concentration of 0.2 mg/ml and were treated with 500 μM sterols in 500 μM DPPC liposome and incubated at 37° C. for 24 h. Aggregates treated with 500 μM DPPC liposome only were used as the controls.
The α-crystallin aggregates were formed by incubating 5 mg/ml protein solutions at 60° C. for 48 h in the presence of 1 M guanidine chloride. The β- and γ-crystallin aggregates were prepared by incubating the protein solutions at 37° C. and pH 3 for 48 h. The preformed aggregates were re-suspended in PBS with a final protein concentration of 0.1 mg/ml. The re-suspended aggregates were treated by 50 μM sterols in 50 μM DPPS liposome and incubated at 37° C. for 144 h. The aggregates treated by 50 μM DPPS liposome were used as the controls. The supernatant and precipitation fractions were separated by centrifugation. The protein concentrations in the supernatant fraction were determined by absorbance at 280 nm and the percentages of the soluble proteins were calculated from three independent repetitions.
The recombinant his-tagged WT and mutated β- and γ-crystallin proteins were overexpressed in E. coli Rosetta and purified by Ni-NTA affinity column followed by gel filtration chromatography using the same protocol as those described elsewhere 13,14,16,18. The overexpression and purification of the non-tagged αA- and αB-crystallins were performed as described previously 19. The purity of the proteins were estimated to be above 95% as evaluated by one homogeneous band on 12.5% SDS-PAGE, 10% native-PAGE and a single peak in the size-exclusion chromatographyprofile. The protein concentration was determined according to the Bradford method by using BSA as the standard 20. All protein samples were prepared in 20 mM PBS buffer containing 150 mM NaCl, 1 mM EDTA and 1 mM DTT.
The aggregates of the WT and mutated αA- and αB-crystallin proteins were obtained by heating the proteins solutions containing 1 M guanidine chloride (ultrapure, Sigma) with a concentration of 5 mg/ml at 60° C. for 48 h. The aggregates of the WT and mutated β- and γ-crystallins were prepared by heating the protein solutions at pH 3 and 37° C. for 48 h. The formation of aggregates was confirmed by turbidity (absorbance at 400 nm) and transmission electron microscope (EM) measurements. The preformed aggregates were resuspended in 20 mM PBS with a final concentration of 0.1 mg/ml (approximately 5 μM). The resuspended aggregates were treated by 50 μM lanosterol or cholesterol in liposomes formed by 50 μM DPPS at 37° C. After 72 h treatment, the protein solutions were used for negative-stained EM observations. After 144 h incubation, the protein solutions were used for turbidity measurements and determinations of protein concentrations in the soluble fractions. The soluble proteins were determined by centrifuge the protein solutions to separate the supernatant and precipitation fractions. Then the protein concentration in the supernatant was determined by the Bradford method. The EM samples were prepared by depositing the protein solutions onto a freshly glow-discharged carbon coated copper grid. […]

In the next data set the test system is cataractous rabbit lens. The data set is described as follows: Treatment of isolated cataractous rabbit lenses. To be noted: isolated rabbit lenses incubated with lanosterol for 6 days. The method, then: FIG. 9. […] Rabbit lenses (n=13) were dissected and incubated with lanosterol for 6 days and subsequently assessed for lens clarity and transparency. Pairs of photographs of each cataractous rabbit lens showing before and after treatment with scores underneath are shown.
Rabbits were euthanized by CO2 inhalation and lenses were immediately dissected and were treated with vehicle or lanosterol dissolved in vehicle to make 5 mM solutions. Lens tissues were incubated in these solutions for 6 days in the dark at room temperature. Cataract were examined under a microscope and then photographed. Degree of cataract was assessed using AREDS cataract grading system.

The test system of data set [3] is aA-crystallin-Y118D and aB-crystallin-R120G. In words: Dissolving of accumulated crystal protein in cells carrying two crystallin mutant plasmids. The format is cell-based. The note with it: 10 uM, compared with 1% DMSO solution. As for the experimental part: FIG. 13. Two mutant crystal proteins were introduced into cells. The accumulated crystal protein were treated by adding different agents.
Cyclopentanoperhy drophenanthrene compounds of the present invention refers to a compound containing cyclopentanoperhy drophenanthrene skeleton structure, including its derivatives. After the two crystal protein mutant plasmid aA-crystallin-Y118D and aB-crystallin-R120G were introduced into cells, we investigated the lanosterol and its derivatives as well as cholesterol (Cholesterol) for their effects on intracellular accumulation of crystal protein. Not all cyclopentanoperhy drophenanthrene compound have the same effect.

A short description of data set [4]: Lanosterol eye drop formulation evaluation (stability, irritation, intraocular bioavailability). The note with it: dissolved in pure aqueous solution.
Source text: The optimal formulation was selected based on the stability of the active ingredient, irritation, and intraocular bioavailability of the eye drops.

The structures appear in SMILES notation. Entries after “also recorded” stand apart in the source; their conditions may differ.

As for `CC(C)=CCC[C@@H](C)[C@H]1CC[C@@]2(C)C3=C(CC[C@]12C)[C@@]1(C)CC[C@H](O)C(C)(C)[C@@H]1CC3` [Lanosterol], in data set [1], the “intracellular aggregation of various cataract-causing crystallin mutants” value is “significantly reduced intracellular aggregation”. Besides, the “dissolution of crystallin aggregates by turbidity” value in data set [2] (500 μM sterols in 500 μM DPPC liposome, 24 h, 0.2 mg/ml protein) was “could dissociate the aggregates”. Moreover, the “dissociation of aggregates of various WT and mutated crystallins” value in data set [2] is given as “can dissociate the preformed amyloid-like fibrils/aggregates”; in data set [2] (listed as lanosterol), “could dissociate the aggregates”. Also, the “cataract severity and lens clarity” value in the data set with cataractous rabbit lens was “reduced cataract severity and increased clarity”. In addition, in data set [3], the “dissolving of accumulated crystal protein” value is “significantly dissolve accumulated crystals protein; also recorded: significant dissolving of the accumulated crystal protein”. For the same compound, the “stability and solubility of lanosterol” value in data set [4] was “poor stability and low solubility”.
